Results reported in patent US5164390A, “6-substituted purinyl piperazine derivatives” (Ortho Pharmaceutical Corporation, priority 1991, dated 1992).
Where two headings read alike, the source gives them in different places.

Tested on: Adult mongrel dogs
Assay: Cardiotonic activity: hemodynamic and inotropic responses (MAP, HR, dP/dt, contractile force) in anesthetized dogs, iv infusion
Format: in vivo, mongrel dog
Settings: Canis lupus familiaris; for ED50: dose producing a 50% increase above baseline in myocardial contractile force, iv, read-out: contractile force (CF) ED50
Description: Adult mongrel dogs were anesthetized with sodium pentobarbital (45 mg/kg, i.p.) and artificially respired. Mean arterial pressure (MAP) was recorded from a cannulated femoral artery and drugs were infused into a cannulated femoral vein. The arterial pressure pulse was used to trigger a cardiotachometer for determination of heart rate (HR). Left ventricular pressure was measured with a Millar catheter and dP/dtmax was derived. A right thoracotomy was performed and myocardial contractile force (CF) was measured with a Walton Brodie strain gauge sutured to the right ventricle. The ventricular muscle was stretched to produce a baseline tension of 100 g. A standard dose of dopamine (10-15 ug/kg/min for 3 min) was administered to determine myocardial responsiveness to inotropic stimulation.
Test compounds were solubilized in a small volume of DMF diluted to a final concentration of 10% in physiological saline. Alternatively, where possible, a soluble hydrochloride salt was prepared by addition of 0.1N HCl diluted in physiological saline. Vehicles were tested in appropriate volumes and found to exert less than a 5% effect on contractile force. For iv studies, compounds were administered by infusion pump (one drug per animal) at rates of 0.58-2.2 mL/min in three to four stepwise increasing doses. Each dose was infused over 5 min immediately after the effect of the previous dose peaked. MAP, HR, dP/dtmax and CF responses were continuously monitored on a Beckman or Gould recorder and expressed as a percent change from pre-drug control values vs. the cumulative dose of drug administered. For these studies, n represents the number of test animals used.
Quantitation of the inotropic potency was obtained by calculation of the contractile force (CF) ED50. This was defined as the dose of compound that produced a 50% increase above baseline in myocardial contractile force. The value was obtained from three to four point dose-response curves using either graphical estimation (n<3) or linear regression analysis (n≥3). Numbers in parentheses are number of animals screened.

[1] = Table 1, 1.875 mg/kg iv, cumulative dose, read-out: CF (myocardial contractile force), % from Control
[2] = Table 1, 1.875 mg/kg iv, cumulative dose, read-out: HR (heart rate), % from Control
[3] = Table 1, 1.875 mg/kg iv, cumulative dose, read-out: MAP (mean arterial pressure), % from Control
[4] = Table 1, 1.875 mg/kg iv, cumulative dose, read-out: dPdt (left ventricular dP/dtmax), % from Control
[5] = range in parentheses on next line
[6] = Table 2, 1.875 mpk iv, read-out: CF (myocardial contractile force), percent change from pre-drug control
[7] = Table 2, 1.875 mpk iv, read-out: HR (heart rate), percent change from pre-drug control
[8] = Table 2, 1.875 mpk iv, read-out: MAP (mean arterial pressure), percent change from pre-drug control
[9] = Table 2, 1.875 mpk iv, read-out: dP/dt (left ventricular dP/dtmax), percent change from pre-drug control

Row | Structure (SMILES) | change in vivo at 1.875 mg/kg [1] [%] | change in vivo at 1.875 mg/kg [2] [%] | change in vivo at 1.875 mg/kg [3] [%] | change in vivo at 1.875 mg/kg [4] [%] | ED50 [5] [mg/kg] | ED50 [mg/kg] | change in vivo at 1.875 mg/kg [6] [%] | change in vivo at 1.875 mg/kg [7] [%] | change in vivo at 1.875 mg/kg [8] [%] | change in vivo at 1.875 mg/kg [9] [%]
1 | OC(CSc1ncnc2[nH]cnc12)CN1CCN(C(c2ccc(F)cc2)c2ccc(F)cc2)CC1 (stereo not shown) [Example 1, 6-[1-[1-[Bis(4-fluorophenyl)methyl]piperazine-4-yl]-2-hydroxy-3-propanylthio]purine Hemihydrate] | 214 | 1 | -5 | 127 | 0.16 | – | – | – | – | –
2 | O[C@H](CSc1ncnc2nc[nH]c12)CN1CCN(C(c2ccc(F)cc2)c2ccc(F)cc2)CC1 [Example 2, (2S)-(+)-6-[1-[1-[Bis(4-fluorophenyl)methyl]piperazin-4-yl]-2-hydroxy-3-propanylthio]purine] | 212 | -6 | -13 | 168 | 0.07 | – | – | – | – | –
3 | O[C@@H](CSc1ncnc2nc[nH]c12)CN1CCN(C(c2ccc(F)cc2)c2ccc(F)cc2)CC1 [Example 3, (2R)-(-)-6-[1-[1-[Bis(4-fluorophenyl)methyl]piperazin-4-yl]-2-hydroxy-3-propanylthio]purine] | 151 | -8 | -4 | 91 | 0.35 | – | – | – | – | –
4 | OC(CSc1ncnc2[nH]cnc12)CN1CCN(C(c2ccccc2)c2ccccc2)CC1 (stereo not shown) [Example 4, 6-[2-Hydroxy-3-(1-(diphenylmethyl)piperazin-4-yl)propan-1-yl]triopurine Hemihydrate] | 86 | -1 | -12 | 60 | – | – | – | – | – | –
5 | OC(CSc1ncnc2[nH]cnc12)CN1CCN(Cc2ccccc2)CC1 (stereo not shown) [Example 5, 6-[1-[1-(Benzyl)piperazin-4-l]-2-hydroxy-3-propanylthio]purine Monomalonate.cndot.5/2 Hydrate] | 43 | 5 | -3 | 58 | – | – | – | – | – | –
6 | OC(CSc1ncnc2[nH]cnc12)CN1CCN(Cc2ccc3c(c2)OCO3)CC1 (stereo not shown) [Example 6, 6-[3-[4-(1,3-Benzodioxol-5-yl)methyl]piperazin-1-yl]-2-hydroxyprop-1-ylthio]purine Sesquihydrate] | 79 | 15 | 4 | 80 | – | – | – | – | – | –
7 | OC(CSc1ncnc2[nH]cnc12)CN1CCN(C(c2ccccc2)c2ccc(Cl)cc2)CC1 (stereo not shown) [Example 7, 6-[1-[1-(4-Chlorobenzhydryl)]piperazin-4-yl]-2-hydroxy-3-propanylthio]purine Monohydrate] | 97 | 0 | 1 | 75 | – | – | – | – | – | –
8 | OC(CSc1ncnc2[nH]cnc12)CN1CCN(C(c2ccc(C(F)(F)F)cc2)c2cccc(C(F)(F)F)c2)CC1 (stereo not shown) [Example 10, 6-[1-[1-(3,4'[Bis(trifluoromethylphenyl)methyl])piperazin-4-yl]-2-hydroxy-3-propanylthio]purine] | 71 | 0 | 5 | 47 | – | – | – | – | – | –
9 | CC(=O)OC(CSc1ncnc2[nH]cnc12)CN1CCN(C(c2ccc(F)cc2)c2ccc(F)cc2)CC1 (stereo not shown) [Example 11, 6-[1-[1-[Bis(4-fluorophenyl)methyl]piperazin-4-yl]-2-acetoxy-3-propanylthio]purine 3/4 Hydrate] | 145 | -4 | -12 | 62 | – | 0.45 | – | – | – | –
10 | Fc1ccc(C(c2ccc(F)cc2)N2CCN(CCCSc3ncnc4nc[nH]c34)CC2)cc1 [Example 14, 6-[1-[1-[Bis(4-fluorophenyl)methyl]piperazin-4-yl]-3-propanylthio]purine] | 38 | 2 | -6 | 17 | – | – | – | – | – | –
11 | OC(CSc1ncnc2[nH]cnc12)CN1CCC(=C(c2ccc(F)cc2)c2ccc(F)cc2)CC1 (stereo not shown) [Example 15, 6-[1-[4-[Bis(4'-fluorophenyl)methylene]-1-piperidinyl]-2-hydroxy-3-propanylthio]purine Hemihydrate] | 87 | -7 | -14 | 28 | – | 0.725 | – | – | – | –
12 | OC(CSc1ncnc2[nH]cnc12)CN1CCN(C(c2ccc(Cl)cc2)c2ccc(Cl)cc2)CC1 (stereo not shown) [Example 16, 6-[1-[1-[Bis(4-chlorophenyl)methyl]piperazin-4-yl]-2 hydroxy-3-propanylthio]purine.cndot.5/4 Hydrate] | 151 | -4 | 9 | 99 | – | 0.608 | – | – | – | –
13 | OC(COc1ncnc2c1ncn2C1CCCCO1)CN1CCN(C(c2ccc(F)cc2)c2ccc(F)cc2)CC1 (stereo not shown) [Example 17] | 37 | 0 | -13 | 16 | – | – | – | – | – | –
14 | OC(COc1ncnc2[nH]cnc12)CN1CCN(C(c2ccc(F)cc2)c2ccc(F)cc2)CC1 (stereo not shown) [Example 18, 6-[3-[4-Bis(4-fluorophenyl)methyl]piperazin-1-yl-2-hydroxy]propoxypurine] | 80 | 12 | 4 | 58 | – | 0.825 | – | – | – | –
15 | OC(COc1ncnc2c1ncn2C1CCCCO1)CN1CCN(C(c2ccccc2)c2ccccc2)CC1 (stereo not shown) [Example 19] | 43 | 3 | 2 | 19 | – | – | – | – | – | –
16 | OC(COc1ncnc2nc[nH]c12)CN1CCN(C(c2ccccc2)c2ccccc2)CC1 (stereo not shown) [Example 20, 6-[3-[4-(Diphenylmethyl)piperazin-1-yl]-2-hydroxypropoxy]-purine] | 66 | 2 | 4 | 36 | – | – | – | – | – | –
17 | OC(CSc1ncnc2[nH]cnc12)CN1CCN(C(c2cccc(C(F)(F)F)c2)c2cccc(C(F)(F)F)c2)CC1 (stereo not shown) [Example 23, 6-[1-[1-[Bis(3-trifluoromethylphenyl)methyl]piperazin-4-yl]-2-hydroxy-3-propanylthio]purine Hemihydrate] | – | – | – | – | – | – | 44 | -7 | 7 | 30
18 | OC(CSc1ncnc2[nH]c(-c3ccccc3)nc12)CN1CCN(C(c2ccc(F)cc2)c2ccc(F)cc2)CC1 (stereo not shown) [Example 24, 6-[1-[1-[Bis(4-fluorophenyl)methyl]piperazin-4-yl]-2-hydroxy-3-propanylthio]-8-phenylpurine.cndot.1/3Hydrate] | – | – | – | – | – | – | 12 | 4 | -3 | 5
19 | Nc1nc(SCC(O)CN2CCN(C(c3ccc(F)cc3)c3ccc(F)cc3)CC2)c2nc[nH]c2n1 (stereo not shown) [Example 25, 2-Amino-6-[1-[1-bis(4-fluorophenyl)methyl]piperazin-4-yl]-2-hydroxy-3-propanyl-thio]purine Hemihydrate] | – | – | – | – | – | – | 84 | 9 | -15 | 23
20 | COC(=O)CCn1cnc2c(SCC(CN3CCN(C(c4ccc(F)cc4)c4ccc(F)cc4)CC3)OC(C)=O)ncnc21 (stereo not shown) [Example 26, 6-[1-[1-[Bis(4-fluorophenyl)methyl]piperazin-4-yl-]-2-acetoxy-3-propanylthio]purin-9-yl-3-propanoic acid, methyl ester] | – | – | – | – | – | – | 34 | -3 | -10 | 29
21 | CCN(CC(O)CN1CCN(C(c2ccc(F)cc2)c2ccc(F)cc2)CC1)c1ncnc2nc[nH]c12 (stereo not shown) [Example 27, 6-[3-[4-[Bis(4-fluorophenyl)methyl]piperazin-1-yl]-2-hydroxypropyl-N-ethylamino]purine] | – | – | – | – | – | – | 10 | 6 | 3 | 14
